{
  "source": "paper PMC4445002",
  "about": "“Efficient inhibition of tumor angiogenesis and growth by a synthetic peptide blocking S100A4-methionine aminopeptidase 2 interaction” (Molecular Therapy. Methods & Clinical Development, 2015)",
  "key": {"ERK1/2": {"tested_on": "ERK1/2", "parameters": "method as in PMID 19716858", "details": "cited from earlier work"}, "MetAP2 [1]": {"tested_on": "MetAP2", "parameters": "method as in PMID 16790550, PMID 22229417", "details": "cited from earlier work"}, "MetAP2 [2]": {"tested_on": "MetAP2", "details": "cited from earlier work"}, "S100A4 [3]": {"tested_on": "S100A4", "test": "FRET acceptor-photobleaching analysis in live HeLa cells", "type": "binding", "details": "ECFP fusion cotransfected with EYFP-S100A4, acceptor photobleaching, n = 8–11, **P < 0.01, ***P < 0.001"}, "[4]": {"tested_on": "S100A4-MetAP2 interaction", "test": "In vitro GST pull-down binding assay S100A4-MetAP2"}, "S100A4 [5]": {"tested_on": "S100A4", "test": "Surface plasmon resonance binding to GST-S100A4", "details": "Biacore 3000, captured GST-S100A4, SBD 1 mmol/l, HBS-P pH 7.4, with or without 1 mmol/l CaCl2, 25 °C, duplicated experiment", "source_text": "The binding of the SBD peptide to S100A4 was examined by Surface plasmon resonance (SPR) with a Biacore 3000 biosensor and GST Capture kit (GE Healthcare, Little Chalfont, UK) according to the manufacturer’s instructions. Goat anti-GST antibody was immobilized on two flow cells of the sensor chip (CM-5) using a standard amine coupling procedure, and then recombinant GST-S100A4 or GST as a negative control was captured. The SBD peptide (1 mmol/l) in HBS-P running buffer (10 mmol/l Hepes, pH 7.4, 150 mmol/l NaCl, 0.005% P20) in the presence or absence of 1 mmol/l CaCl2 was injected over two flow cells of the chip at a flow rate of 10 ml/minute at 25 °C for 5 minutes. The response from the control surface was subtracted, and the data plotted as Resonance Units (RU)."}},
  "data": [
    {"molecule": "CO[C@@H]1[C@H](OC(=O)/C=C/C=C/C=C/C=C/C(=O)O)CC[C@]2(CO2)[C@H]1[C@@]1(C)O[C@@H]1CC=C(C)C", "note": "[Fumagillin, fumagillin]", "values": [
      {"measurement": "effect on ERK1/2 activity and cell growth", "setting": "ERK1/2", "result": "inhibition of the activity of ERK1/2 and cell growth"},
      {"measurement": "antiangiogenic activity", "setting": "MetAP2 [1]", "result": "potent antiangiogenic agents"},
      {"measurement": "effect on MetAP2 auto-proteolytic activity", "setting": "MetAP2 [2]", "result": "inhibits MetAP2’s auto-proteolytic activity"},
      {"measurement": "effect on MetAP2 turnover rate", "setting": "MetAP2 [2]", "result": "decreases its turnover rate"}
    ]},
    {"molecule": "CO[C@@H]1[C@H](OC(=O)NC(=O)CCl)CC[C@]2(CO2)[C@H]1[C@@]1(C)O[C@@H]1CC=C(C)C", "note": "[TNP-470]", "values": [
      {"measurement": "antiangiogenic activity", "setting": "MetAP2 [1]", "result": "potent antiangiogenic agents"}
    ]},
    {"molecule": "ECFP-CBD: CBD sequence subcloned into pECFP-C1, expressed in HeLa cells (TMIEICEKLEDCSRKLIKENGLNAGLAFPTGCSLNNCA; left off: ECFP, end not stated, kept)", "values": [
      {"measurement": "FRET efficiency with EYFP-S100A4 vs negative controls", "setting": "S100A4 [3]", "result": "but not for ECFP-CBD/EYFP-S100A4 (orange bars), were significantly higher than those in respective negative controls"}
    ]},
    {"molecule": "ECFP-NBD: NBD sequence subcloned into pECFP-C1, expressed in HeLa cells (REAAEAHRQVRKYVMSWIKPGMTMIEICEKLEDCSRKLI; left off: ECFP, end not stated, kept)", "values": [
      {"measurement": "FRET efficiency with EYFP-S100A4 vs negative controls", "setting": "S100A4 [3]", "result": "significantly higher than those in respective negative controls"}
    ]},
    {"molecule": "ECFP-SBD: SBD sequence subcloned into pECFP-C1, expressed in HeLa cells (REAAEAHRQVRKYVMSWIKPGMTMIEICEKLEDCSRKLIKENGLNAGLAFPTGCSLNNCA; left off: ECFP, end not stated, kept)", "values": [
      {"measurement": "FRET efficiency with EYFP-S100A4 vs negative controls", "setting": "S100A4 [3]", "result": "significantly higher than those in respective negative controls"}
    ]},
    {"molecule": "SBD: 60 amino acid residues spanning from Arg170 to Ala229 of MetAP2 (REAAEAHRQVRKYVMSWIKPGMTMIEICEKLEDCSRKLIKENGLNAGLAFPTGCSLNNCA)", "values": [
      {"measurement": "inhibition of S100A4-MetAP2 interaction (GST pull-down)", "setting": "[4]; [35S]MetAP2, GST/S100A4, 1 mmol/l CaCl2, peptide at 25-fold molar excess of MetAP2", "result": "efficiently blocked the interaction between S100A4 and MetAP2"},
      {"measurement": "binding to S100A4 (SPR)", "setting": "S100A4 [5]", "result": "occurred only in the presence of Ca^2+"}
    ]},
    {"molecule": "methionine aminopeptidase 2 [MetAP2]", "values": [
      {"measurement": "binding of MetAP2 to S100A4 (GST pull-down)", "setting": "[4]; [35S]MetAP2, GST/S100A4, 1 mmol/l CaCl2 or 1 mmol/l EDTA", "result": "S100A4 bound to MetAP2 in a Ca^2+-dependent manner"}
    ]}
  ]
}
